Patent US20170368082A1, “FORMULATIONS OF BRINCIDOFOVIR” (priority 2016, published 2017)

Legend:
[1] = IV BCV single ascending dose study in healthy subjects: safety; type: in vivo, human
Description: Plasma PK samples were collected over 7 days and assayed by HPLC-MS. Plasma BCV PK parameters were determined by non-compartmental analysis and dose proportionality was assessed. Safety assessments were collected over 14 days.

[2] = Stability and confirmation analysis of stock and dose formulations; type: physicochemical
Description: Brincidofovir injectable liquid stock formulation was prepared to 15 mg/mL brincidofovir, compounded from stock solutions inclusive of three (3) steps: (1) 2× sodium phosphate buffer solution (400 mM, pH=8.0) was prepared; (2) 1.0 N sodium hydroxide solution was purchased; brincidofovir injectable liquid stock formulation (15 mg/mL brincidofovir, 200 mM sodium phosphate, pH=8.0) from solid brincidofovir, 1.0 N sodium hydroxide solution, 2× sodium phosphate buffer solution and WFI (water for injection) was prepared.
The brincidofovir injectable liquid stock formulation is stable for 28 days under refrigerated conditions (2 to 8° C.). Brincidofovir injectable liquid stock formulation was diluted with 5% dextrose to yield the desired dose concentration.
The brincidofovir stock solution of 15.0 mg/mL was stable for 24 hours when stored at room temperature (nominally 20° C.) and for 8, 14 and 28 days when stored at 2 to 8° C.
Two samples (5 mL each) were taken on the day of preparation from the middle region of each dosing formulation (including control) prepared for each week. One sample was analyzed, in duplicate, for dose confirmation analysis and one sample was retained refrigerated (2 to 8° C.) (Due to initial results outside the study acceptance plan criteria (±10% of nominal), the Group 2 retained samples were re-analyzed for Weeks 1 and 2).
Analysis of preliminary mixes confirmed that the test item was stable in the vehicle for at least 24 hours at room temperature (nominally 20° C.) and for at least 8 days at 2 to 8° C. (under storage conditions used in this study). Analyses conducted during the treatment period confirmed that with the exception of the Day 1, 1 mg/mL (Group 2) formulation, dose solutions of appropriate concentration were administered. The Day 1, 1 mg/mL dose solution was 86.7% of nominal. Without wishing to be bound by theory, it was concluded that due to interactions at the meniscus, the volume collected for dose formulation analysis may have lowered the analysis results. The volume collected for analysis was increased for subsequent weekly preparations and confirmed to be of appropriate concentration.

[3] = Cohort 1, BCV 10 mg 2 h infusion, n = 6
[4] = Cohort 2, BCV 25 mg 2 h infusion, n = 6
[5] = Cohort 3, BCV 50 mg 2 h infusion, n = 9
[6] = Cohort 4, BCV 50 mg 4 h infusion, n = 9

CCCCCCCCCCCCCCCCOCCCOP(=O)(O)CO[C@H](CO)Cn1ccc(N)nc1=O [Brincidofovir]
Drug-Related AEs: Decreased appetite (number of subjects) [1, 3]: 0 | Drug-Related AEs: Diarrhea (number of subjects) [1, 3]: 0 | Drug-Related AEs: Elevated liver transaminases (number of subjects) [1, 3]: 0 | Drug-Related AEs: Headache (number of subjects) [1, 3]: 0 | Drug-Related AEs: Nausea (number of subjects) [1, 3]: 0 | Drug-Related AEs: Pain, phlebitis at infusion site (number of subjects) [1, 3]: 0 | Grade 3 or 4 Drug-Related AEs: Decreased appetite (number of subjects) [1, 3]: 0 | Grade 3 or 4 Drug-Related AEs: Diarrhea (number of subjects) [1, 3]: 0 | Grade 3 or 4 Drug-Related AEs: Elevated liver transaminases (number of subjects) [1, 3]: 0 | Grade 3 or 4 Drug-Related AEs: Headache (number of subjects) [1, 3]: 0 | Grade 3 or 4 Drug-Related AEs: Nausea (number of subjects) [1, 3]: 0 | Grade 3 or 4 Drug-Related AEs: Pain, phlebitis at infusion site (number of subjects) [1, 3]: 0 | Drug-Related AEs: Decreased appetite (number of subjects) [1, 4]: 0 | Drug-Related AEs: Diarrhea (number of subjects) [1, 4]: 0 | Drug-Related AEs: Elevated liver transaminases (number of subjects) [1, 4]: 0 | Drug-Related AEs: Headache (number of subjects) [1, 4]: 0 | Drug-Related AEs: Nausea (number of subjects) [1, 4]: 0 | Drug-Related AEs: Pain, phlebitis at infusion site (number of subjects) [1, 4]: 0 | Grade 3 or 4 Drug-Related AEs: Decreased appetite (number of subjects) [1, 4]: 0 | Grade 3 or 4 Drug-Related AEs: Diarrhea (number of subjects) [1, 4]: 0 | Grade 3 or 4 Drug-Related AEs: Elevated liver transaminases (number of subjects) [1, 4]: 0 | Grade 3 or 4 Drug-Related AEs: Headache (number of subjects) [1, 4]: 0 | Grade 3 or 4 Drug-Related AEs: Nausea (number of subjects) [1, 4]: 0 | Grade 3 or 4 Drug-Related AEs: Pain, phlebitis at infusion site (number of subjects) [1, 4]: 0 | Drug-Related AEs: Decreased appetite (number of subjects) [1, 5]: 0 | Drug-Related AEs: Diarrhea (% of subjects) [1, 5]: (11%) | Drug-Related AEs: Diarrhea (number of subjects) [1, 5]: 1 | Drug-Related AEs: Elevated liver transaminases (number of subjects) [1, 5]: 0 | Drug-Related AEs: Headache (% of subjects) [1, 5]: (22%) | Drug-Related AEs: Headache (number of subjects) [1, 5]: 2 | Drug-Related AEs: Nausea (number of subjects) [1, 5]: 0 | Drug-Related AEs: Pain, phlebitis at infusion site (% of subjects) [1, 5]: (11%) | Drug-Related AEs: Pain, phlebitis at infusion site (number of subjects) [1, 5]: 1 | Grade 3 or 4 Drug-Related AEs: Decreased appetite (number of subjects) [1, 5]: 0 | Grade 3 or 4 Drug-Related AEs: Diarrhea (number of subjects) [1, 5]: 0 | Grade 3 or 4 Drug-Related AEs: Elevated liver transaminases (number of subjects) [1, 5]: 0 | Grade 3 or 4 Drug-Related AEs: Headache (number of subjects) [1, 5]: 0 | Grade 3 or 4 Drug-Related AEs: Nausea (number of subjects) [1, 5]: 0 | Grade 3 or 4 Drug-Related AEs: Pain, phlebitis at infusion site (number of subjects) [1, 5]: 0 | Drug-Related AEs: Decreased appetite (% of subjects) [1, 6]: (11%) | Drug-Related AEs: Decreased appetite (number of subjects) [1, 6]: 1 | Drug-Related AEs: Diarrhea (% of subjects) [1, 6]: (33%) | Drug-Related AEs: Diarrhea (number of subjects) [1, 6]: 3 | Drug-Related AEs: Elevated liver transaminases (% of subjects) [1, 6]: (11%) | Drug-Related AEs: Elevated liver transaminases (number of subjects) [1, 6]: 1 | Drug-Related AEs: Headache (% of subjects) [1, 6]: (22%) | Drug-Related AEs: Headache (number of subjects) [1, 6]: 2 | Drug-Related AEs: Nausea (% of subjects) [1, 6]: (22%) | Drug-Related AEs: Nausea (number of subjects) [1, 6]: 2 | Drug-Related AEs: Pain, phlebitis at infusion site (number of subjects) [1, 6]: 0 | Grade 3 or 4 Drug-Related AEs: Decreased appetite (number of subjects) [1, 6]: 0 | Grade 3 or 4 Drug-Related AEs: Diarrhea (number of subjects) [1, 6]: 0 | Grade 3 or 4 Drug-Related AEs: Elevated liver transaminases (% of subjects) [1, 6]: (11%) | Grade 3 or 4 Drug-Related AEs: Elevated liver transaminases (number of subjects) [1, 6]: 1 | Grade 3 or 4 Drug-Related AEs: Headache (number of subjects) [1, 6]: 0 | Grade 3 or 4 Drug-Related AEs: Nausea (number of subjects) [1, 6]: 0 | Grade 3 or 4 Drug-Related AEs: Pain, phlebitis at infusion site (number of subjects) [1, 6]: 0 | Adverse events ([1]; IV 10 mg and 25 mg): No drug related adverse events | Safety and tolerability ([1]; IV 10 mg and 25 mg): generally safe and well-tolerated | Bilirubin ([1]; any cohort): No Grade 2 or higher bilirubin | ALT elevations ([1]; cohort 4): transient grade 2-3 ALT elevations | Serious adverse events ([1]; human, in vivo): no serious adverse events occurred | Tolerability ([1]; single doses 10-50 mg, 2h IV infusion): well tolerated | ALT elevations ([1]; therapeutic IV exposures (cohorts 1 and 2)): no grade 2 or higher ALT elevations were observed | Stable for (refrigerated) ([2]; 0.05 mg/mL and 2.0 mg/mL, 2 to 8 °C): at least 8 days | Stable for (room temperature) ([2]; 0.05 mg/mL and 2.0 mg/mL, room temperature): at least 24 hours | ANALYTICAL CONCENTRATION (% of Nominal) ([2]; dose formulation Day 1, Group 2, nominal 1 (ppm) OR (mg/mL)): 86.7 % of Nominal | ANALYTICAL CONCENTRATION (% of Nominal) ([2]; dose formulation Day 1, Group 2 Back-up, nominal 1 (ppm) OR (mg/mL)): 76.9 % of Nominal | ANALYTICAL CONCENTRATION (% of Nominal) ([2]; dose formulation Day 1, Group 2 Repeat Preparation, nominal 1 (ppm) OR (mg/mL)): 75.5 % of Nominal | ANALYTICAL CONCENTRATION (% of Nominal) ([2]; dose formulation Day 1, Group 3, nominal 4 (ppm) OR (mg/mL)): 95.7 % of Nominal | ANALYTICAL CONCENTRATION (% of Nominal) ([2]; dose formulation Day 1, Group 4, nominal 15 (ppm) OR (mg/mL)): 100.7 % of Nominal | ANALYTICAL CONCENTRATION (% of Nominal) ([2]; dose formulation Week 2, Group 2, nominal 1 (ppm) OR (mg/mL)): 90.1 % of Nominal | ANALYTICAL CONCENTRATION (% of Nominal) ([2]; dose formulation Week 2, Group 2 Back-up, nominal 1 (ppm) OR (mg/mL)): 86.8 % of Nominal | ANALYTICAL CONCENTRATION (% of Nominal) ([2]; dose formulation Week 2, Group 3, nominal 4 (ppm) OR (mg/mL)): 95.4 % of Nominal | ANALYTICAL CONCENTRATION (% of Nominal) ([2]; dose formulation Week 2, Group 4, nominal 15 (ppm) OR (mg/mL)): 102.9 % of Nominal | ANALYTICAL CONCENTRATION (% of Nominal) ([2]; dose formulation Week 3, Group 2, nominal 1 (ppm) OR (mg/mL)): 93.2 % of Nominal | ANALYTICAL CONCENTRATION (% of Nominal) ([2]; dose formulation Week 3, Group 3, nominal 4 (ppm) OR (mg/mL)): 94.8 % of Nominal | ANALYTICAL CONCENTRATION (% of Nominal) ([2]; dose formulation Week 3, Group 4, nominal 15 (ppm) OR (mg/mL)): 100.2 % of Nominal | ANALYTICAL CONCENTRATION (% of Nominal) ([2]; dose formulation Week 4, Group 2, nominal 1 (ppm) OR (mg/mL)): 92.8 % of Nominal | ANALYTICAL CONCENTRATION (% of Nominal) ([2]; dose formulation Week 4, Group 3, nominal 4 (ppm) OR (mg/mL)): 96.9 % of Nominal | ANALYTICAL CONCENTRATION (% of Nominal) ([2]; dose formulation Week 4, Group 4, nominal 15 (ppm) OR (mg/mL)): 101.0 % of Nominal | ANALYTICAL CONCENTRATION (% of Nominal) ([2]; dose formulation Week 5, Group 2, nominal 1 (ppm) OR (mg/mL)): 94.9 % of Nominal | ANALYTICAL CONCENTRATION (% of Nominal) ([2]; dose formulation Week 5, Group 3, nominal 4 (ppm) OR (mg/mL)): 97.7 % of Nominal | ANALYTICAL CONCENTRATION (% of Nominal) ([2]; dose formulation Week 5, Group 4, nominal 15 (ppm) OR (mg/mL)): 101.1 % of Nominal
